# Experimental data: patent publication US5298494A, “Monosaccharides having anti-proliferation and anti-inflammatory activity, compositions and uses thereof” (Greenwich Pharmaceuticals Incorporated, priority 1993, dated 1994)
# Where two headings read alike, the source gives them in different places.
# Legend:
# [1] = test system: T lymphocytes (normal mouse spleen cells) stimulated with ConA; experiment: Mouse Spleen Cell ConA Blastogenesis Assay; format: cell-based, mouse (C57Bl/6); details: Mus musculus, T-lymphocyte; for inhibition at 0.1 µg/mL: compound 0.1 ug/ml; for inhibition at 1 µg/mL: compound 1 ug/ml; for inhibition at 2.5 µg/mL: compound 2.5 ug/ml; for inhibition at 10 µg/mL: compound 10 ug/ml; for inhibition at 25 µg/mL: compound 25 ug/ml; for inhibition at 100 µg/mL: compound 100 ug/ml
# [2] = test system: Interleukin 1 (IL-1) production by peritoneal macrophages; experiment: IL-1 Assay: production of interleukin-1 by peritoneal macrophages (thymocyte bioassay); format: cell-based, mouse (C57B1/6); set-up: inhibition: dose or concentration left out as unconfirmed
# Excerpt: Interleukin 1 (IL-1) is a potent immunomodulatory cytokine that has a broad range of pro-inflammatory activities. IL-1 is known to be produced by activated accessory cells such as macrophages. Accessory cell production of IL-1 results in the activation and proliferation of T and B lymphocytes. Therefore, by inhibiting macrophage activation and production of IL-1, the activation and proliferation of the cellular effectors of inflammation can be modulated. Compounds of the invention were screened for inhibitory activity in a classical IL-1 assay. Six to 8 week old male C57B1/6 mice were purchased from Harlan Sprague Dawley. Peritoneal macrophages were elicited by the administration to mice of a single intraperitoneal injection of 0.2 ml of complete Freund's adjuvant. After 48 hours, elicited macrophages were removed from the mice by lavage with the use of Hank's balanced salt solution. […] To the macrophage cultures were added various doses of the compounds of the invention and 10 ug/ml of the macrophage activator lipopolysaccharide (to stimulate IL-1 production). Control cultures consisted of macrophages, lipopolysaccharide and culture medium containing various doses of DMSO only. […] The amount of IL-1 produced in the individual wells was determined in a bioassay for IL-1. This involved the removal of thymuses from mice less than 8 weeks of age. Thymocytes were isolated by passing each thymus through a stainless steel mesh screen. […] After 18 hours cells were harvested and radioactive incorporation (as a measure of cell proliferation) was quantitated in a liquid scintillation counter. The students t test was used to determine the significance of the difference between experimental and control values.
# [3] = test system: T cell proliferation in mouse spleen cell mixed lymphocyte cultures; experiment: Mixed Lymphocyte Reaction (MLR) assay; format: cell-based, mouse (Balb/c responder, C57B1/6 stimulator)
# Excerpt: The pharmacologic assays performed to determine the immunomodulatory effects of the experimental compounds in vitro include the Mixed Lymphocyte Reaction (MLR) and the ConA blastogenesis assay. These assays were used to determine the inhibitory effects of the compounds of the invention on T lymphocyte activation and proliferation. Since inflammation at the cellular level is characterized by T lymphocyte recruitment, activation and proliferation, these assays are appropriate to use as screens for novel compounds having therapeutic potential in the treatment of disorders in which inflammatory mechanisms are involved.
# The MLR is a classical assay used to measure T cell function by studying the proliferative response of T cells which are activated in vitro by genetically disparate stimulator cells. This is accomplished by co-culturing spleen cells from two different strains of mice. Splenic T cell proliferation occurs as a result of cellular activation signals generated by the ongoing cellular interactions.
# Balb/c mice were euthanised by cervical dislocation and their spleens removed. Single cell suspensions of the spleens were prepared in culture medium (hepes buffered RPMI-1640 supplemented with 10% fetal calf serum, 2mM glutamine, 500 units penicillin/ streptomycin, and 4×10^-5 M 2-mercaptoethanol) using a Teflon pestle. The cells were centrifuged at 1500 rpm and the pellets resuspended in ACT (0.15M tris, 0.14M ammonium chloride, pH 7.2) in order to lyse the red blood cells. After a 5 minute incubation in a 37 C. waterbath, the cells were resuspended in culture medium and counted. C57B1/6 spleen cells which were used as stimulator cells, were also prepared by this method. The stimulator cells were treated with 100 ug/ml of mitomycin c for 1 hour at 37 C. (to inhibit stimulatory cell proliferation) and were then washed 5 times in culture medium. The proliferative responses were measured by culturing 2.5×10^5 responder cells with 5×10^5 stimulatory cells in 96 well microtiter plates in the presence or absence of various doses of test compounds or vehicle (DMSO). Syngeneic control cultures using mitomycin c treated Balb/c spleen cells as stimulator cells were also run. All cultures were run in triplicate.
# Solutions of compounds of the present invention in DMSO were prepared at a stock concentration of 120 Mm. Dilutions were made in culture medium to the following concentrations: 3, 10, 30, 100, and 300 uM. The vehicle (DMSO) was used as a negative control.
# After incubation of for 5 days at 37 C. with 5% CO2, the amount of cell proliferation was measured by adding 20 ul of MTT (3-[4,5-dimethylthiazol-2-yl]-2,5diphenyl-tetrazolium bromide) (10 mg/ml in phosphate buffered saline) to each well. Plates were incubated for 4 hours at 37 C., after which 180 ul of 10% sodium dodecyl sulphate in phosphate buffered saline was added. After an overnight incubation, the optical density (OD) of each well was read on a Molecular Devices microplate reader at 570-650 nm. The results were determined by calculating the difference between the means of the allogeneic cultures and the means of the syngenic cultures for each test article concentration. Differences of the test article groups were compared to the control group and the percent change from the control was determined.
# [4] = ConA 1 ug/ml, 0.01 ug/ml, read-out: % Change from Control (Table II)
# [5] = ConA 1 ug/ml, compound 0.01 ug/ml, read-out: % change from control, ConA blastogenic response
# [6] = ConA 1 ug/ml, read-out: % change from control, ConA blastogenic response
# [7] = ConA 4 ug/ml, 0.01 ug/ml, read-out: % Change from Control (Table II)
# [8] = ConA 4 ug/ml, compound 0.01 ug/ml, read-out: % change from control, ConA blastogenic response
# [9] = ConA 4 ug/ml, read-out: % change from control, ConA blastogenic response
SMILES,"inhibition at 0.01 µg/mL [1, 4] [%]","inhibition at 0.01 µg/mL [1, 5] [%]","inhibition at 0.1 µg/mL [1, 6] [%]","inhibition at 1 µg/mL [1, 6] [%]","inhibition at 2.5 µg/mL [1, 6] [%]","inhibition at 10 µg/mL [1, 6] [%]","inhibition at 25 µg/mL [1, 6] [%]","inhibition at 100 µg/mL [1, 6] [%]","inhibition at 0.01 µg/mL [1, 7] [%]","inhibition at 0.01 µg/mL [1, 8] [%]","inhibition at 0.1 µg/mL [1, 9] [%]","inhibition at 1 µg/mL [1, 9] [%]","inhibition at 2.5 µg/mL [1, 9] [%]","inhibition at 10 µg/mL [1, 9] [%]","inhibition at 25 µg/mL [1, 9] [%]","inhibition at 100 µg/mL [1, 9] [%]",other results
"CCCCCC#CCOC[C@H]1O[C@@]2(OC)COC(C)(C)O[C@H]2[C@@H]1OCC#CCCCCC [Id, methyl 1,3-O-isopropylidene-4,6-di-O-(2-octynyl)-α-D-fructofuranoside]",9,10,25,67,91,100,100,99,16,14,27,75,94,100,100,99,"^3 H-Thymidine uptake by thymocytes ([2]; 0.001 ug/ml): 10,850 ± 995 cpm; ^3 H-Thymidine uptake by thymocytes ([2]; 0.01 ug/ml): 13,080 cpm; ^3 H-Thymidine uptake by thymocytes ([2]; 0.1 ug/ml): 13,190 ± 560 cpm; ^3 H-Thymidine uptake by thymocytes ([2]; 1 ug/ml): 9,880 ± 1,029 cpm; ^3 H-Thymidine uptake by thymocytes ([2]; 2.5 ug/ml): 6,400 ± 1,070 cpm; ^3 H-Thymidine uptake by thymocytes ([2]; 10 ug/ml): 3,050 ± 191 cpm; ^3 H-Thymidine uptake by thymocytes ([2]; 25 ug/ml): 2,537 ± 182 cpm; ^3 H-Thymidine uptake by thymocytes ([2]; 100 ug/ml): 1,930 cpm; inhibition at 0.001 µg/mL ([2]; Mus musculus, Peritoneal macrophage, 0.001 ug/ml, read-out: % effect on IL-1 production (thymidine uptake by thymocytes)): 0%; inhibition at 0.01 µg/mL ([2]; Mus musculus, Peritoneal macrophage, 0.01 ug/ml, read-out: % effect on IL-1 production (thymidine uptake by thymocytes)): -20%; inhibition at 0.1 µg/mL ([2]; Mus musculus, Peritoneal macrophage, 0.1 ug/ml, read-out: % effect on IL-1 production (thymidine uptake by thymocytes)): -19%; inhibition at 2.5 µg/mL ([2]; Mus musculus, Peritoneal macrophage, 2.5 ug/ml, read-out: % effect on IL-1 production (thymidine uptake by thymocytes)): 44%; inhibition at 10 µg/mL ([2]; Mus musculus, Peritoneal macrophage, 10 ug/ml, read-out: % effect on IL-1 production (thymidine uptake by thymocytes)): 70%; inhibition at 25 µg/mL ([2]; Mus musculus, Peritoneal macrophage, 25 ug/ml, read-out: % effect on IL-1 production (thymidine uptake by thymocytes)): 71%; inhibition at 100 µg/mL ([2]; Mus musculus, Peritoneal macrophage, 100 ug/ml, read-out: % effect on IL-1 production (thymidine uptake by thymocytes)): 78%; inhibition ([2]; Mus musculus, Peritoneal macrophage, read-out: % effect on IL-1 production (thymidine uptake by thymocytes)): 10%"
"CCCCC/C=C\COC[C@H]1O[C@](COC/C=C\CCCCC)(OC)[C@@H](O)[C@@H]1O [Ig, methyl 1,6-di-O-(cis,2-octenyl)-α-D-fructofuranoside]",3,-10,10,4,11,87,84,99,-7,-12,9,5,20,73,77,100,"Mean O.D. Allogenic ([3]; 3 um): 0.412 O.D.; Mean O.D. Syngeneic ([3]; 3 um): 0.155 O.D.; Mean O.D. Allogenic ([3]; 10 um): 0.421 O.D.; Mean O.D. Syngeneic ([3]; 10 um): 0.182 O.D.; Mean O.D. Allogenic ([3]; 30 um): 0.399 O.D.; Mean O.D. Syngeneic ([3]; 30 um): 0.157 O.D.; Mean O.D. Allogenic ([3]; 100 um): 0.419 O.D.; Mean O.D. Syngeneic ([3]; 100 um): 0.173 O.D.; Mean O.D. Allogenic ([3]; 300 um): 0.474 O.D.; Mean O.D. Syngeneic ([3]; 300 um): 0.037 O.D.; inhibition at 3 µM ([3]; Mus musculus, Lymphocyte, 3 um, read-out: % Change From Control, MLR): -34%; inhibition at 10 µM ([3]; Mus musculus, Lymphocyte, 10 um, read-out: % Change From Control, MLR): -24%; inhibition at 30 µM ([3]; Mus musculus, Lymphocyte, 30 um, read-out: % Change From Control, MLR): -26%; inhibition at 100 µM ([3]; Mus musculus, Lymphocyte, 100 um, read-out: % Change From Control, MLR): -28%; inhibition at 300 µM ([3]; Mus musculus, Lymphocyte, 300 um, read-out: % Change From Control, MLR): -81%"
